Assays:
Type in all cases: functional
Cydia pomonella [1] = experiment: Ovicidal activity against 24 hr old Cydia pomonella (codling moth) eggs assessed as efficacy at 5 mg/ml sprayed at 19 +/- 1 degC
Cydia pomonella [2] = experiment: Ovicidal activity against 24 hr old Cydia pomonella (codling moth) eggs assessed as development period at 5 mg/ml sprayed at 19 +/- 1 degC
Cydia pomonella [3] = experiment: Ovicidal activity against 24 hr old Cydia pomonella (codling moth) eggs assessed as mortality at 5 mg/ml sprayed at 19 +/- 1 degC

Work on C=CCOC(=O)Nc1ccc(Oc2ccc(N)cc2)cc1 yielded an Efficacy (Cydia pomonella [1]) of 35%, a Time (Cydia pomonella [2]) of 11.3 days and a mortality at 5000 µg/mL (Cydia pomonella [3]) of 48.1%.

C=CCOC(=O)Nc1ccc(Oc2ccc(NC(=O)c3ccccn3)cc2)cc1 gave an Efficacy (Cydia pomonella [1]) of 27.2%, a Time (Cydia pomonella [2]) of 11.1 days and a mortality at 5000 µg/mL (Cydia pomonella [3]) of 40.7%.

With C=CCOC(=O)Nc1ccc(Oc2ccc(NC(=O)c3cccnc3)cc2)cc1 the Time (Cydia pomonella [2]) was 10.2 days and the mortality at 5000 µg/mL (Cydia pomonella [3]) was 34.4%.

With C=CCOC(=O)Nc1ccc(Oc2ccc(NC(=O)c3ccncc3)cc2)cc1 the Efficacy (Cydia pomonella [1]) was 42.5%, the Time (Cydia pomonella [2]) was 11.7 days and the mortality at 5000 µg/mL (Cydia pomonella [3]) was 53.8%.

For C=CCOC(=O)Nc1ccc(Oc2ccc(NC(=O)c3cnccn3)cc2)cc1, the Time (Cydia pomonella [2]) was 9.5 days and the mortality at 5000 µg/mL (Cydia pomonella [3]) was 25.3%.

O=C(Nc1ccc(Oc2ccccc2)cc1)c1ccncc1 was tested, and the Time (Cydia pomonella [2]) was 10 days and the mortality at 5000 µg/mL (Cydia pomonella [3]) was 33.4%.

O=C(Nc1ccc(Oc2ccccc2)cc1)c1cnccn1 showed a Time (Cydia pomonella [2]) of 9.7 days and a mortality at 5000 µg/mL (Cydia pomonella [3]) of 29.2%.

Work on CC(=O)Nc1ccc(Oc2ccc(NC(=O)c3ccccn3)cc2)cc1 yielded an Efficacy (Cydia pomonella [1]) of 47.1%, a Time (Cydia pomonella [2]) of 10.9 days and a mortality at 5000 µg/mL (Cydia pomonella [3]) of 67.3%.

With CC(=O)Nc1ccc(Oc2ccc(NC(=O)c3cccnc3)cc2)cc1 the Time (Cydia pomonella [2]) was 10.6 days and the mortality at 5000 µg/mL (Cydia pomonella [3]) was 57.6%.

CC(=O)Nc1ccc(Oc2ccc(NC(=O)c3ccncc3)cc2)cc1 showed a Time (Cydia pomonella [2]) of 10.1 days and a mortality at 5000 µg/mL (Cydia pomonella [3]) of 52.7%.

Work on CC(=O)Nc1ccc(Oc2ccc(NC(=O)c3cnccn3)cc2)cc1 yielded an Efficacy (Cydia pomonella [1]) of 49.1%, a Time (Cydia pomonella [2]) of 11 days and a mortality at 5000 µg/mL (Cydia pomonella [3]) of 68.4%.

O=C(Nc1ccc(Oc2ccccc2)cc1)c1cccnc1 was tested, and the Efficacy (Cydia pomonella [1]) was 26.3%, the Time (Cydia pomonella [2]) was 10.6 days and the mortality at 5000 µg/mL (Cydia pomonella [3]) was 40.9%.

O=C(Nc1ccc(Oc2ccccc2)cc1)c1ccccn1 was tested, and the Efficacy (Cydia pomonella [1]) was 40.7%, the Time (Cydia pomonella [2]) was 10.8 days and the mortality at 5000 µg/mL (Cydia pomonella [3]) was 52.4%.

CCOC(=O)NCCOc1ccc(Oc2ccccc2)cc1 [PHENOXYCARB] was tested, and the Efficacy (Cydia pomonella [1]) was 99.1% and the mortality at 5000 µg/mL (Cydia pomonella [3]) was 99.3%.
